Laboratory results from BindingDB's records for doi:10.1016/j.bmcl.2017.04.009 (Vanderbilt University School of Medicine, 2017).

Molecular target: T1, Muscarinic acetylcholine receptor M4 (Homo sapiens, UniProt P08173)
T1 sequence (P08173 whole entry): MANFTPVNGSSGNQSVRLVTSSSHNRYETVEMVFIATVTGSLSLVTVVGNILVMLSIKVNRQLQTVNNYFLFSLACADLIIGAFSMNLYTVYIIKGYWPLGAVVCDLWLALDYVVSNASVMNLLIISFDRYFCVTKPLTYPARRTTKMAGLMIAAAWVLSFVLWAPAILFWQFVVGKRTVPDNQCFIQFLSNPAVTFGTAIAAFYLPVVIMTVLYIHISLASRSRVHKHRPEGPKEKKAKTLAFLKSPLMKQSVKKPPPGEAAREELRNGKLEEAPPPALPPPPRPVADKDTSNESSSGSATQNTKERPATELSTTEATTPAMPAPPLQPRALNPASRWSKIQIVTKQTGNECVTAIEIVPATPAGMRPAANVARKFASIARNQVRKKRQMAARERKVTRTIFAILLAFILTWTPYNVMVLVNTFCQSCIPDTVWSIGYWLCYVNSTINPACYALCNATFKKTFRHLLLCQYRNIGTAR
Assay: Antagonist activity at recombinant human M4 receptor expressed in CHO cells co-expressing Gqi5 by calcium mobilization assay

IC50: 117 nM
SMILES: O=C(C1CCN(c2cc(Oc3ccc(Cl)cc3F)ncn2)CC1)N1CCc2ccccc2C1
